From ChEMBL document CHEMBL1132434, “Antitumor benzothiazoles. 8. Synthesis, metabolic formation, and biological properties of the C- and N-oxidation products of antitumor 2-(4-aminophenyl)benzothiazoles” (J Med Chem, 1999)

What was measured:
MCF7 [1] = test: In vitro cytotoxicity against MCF-7 human mammary carcinoma cells; assay type: functional, cell-based
786-0 = test: Growth inhibition of the 786-O Renal cancer cell line for 2-day in vitro assay.; assay type: functional; conditions: Homo sapiens, 786-0, 48 h
A498 = test: Growth inhibition of the A498 Renal cancer cell line for 2-day in vitro assay.; assay type: functional; conditions: Homo sapiens, A498, 48 h
A549 = test: Growth inhibition of the A549/ATCC non-small cell lung cancer cell line for 2-day in vitro assay.; assay type: functional; conditions: Homo sapiens, A549, 48 h
ACHN = test: Growth inhibition of the ACHN Renal cancer cell line for 2-day in vitro assay.; assay type: functional; conditions: Homo sapiens, 48 h
CCRF-CEM = test: Growth inhibition of the CCRF-CEM leukemia cell line for 2-day in vitro assay.; assay type: functional; conditions: Homo sapiens, 48 h
COLO 205 = test: Growth inhibition of the COLO-205 colon cancer cell line for 2-day in vitro assay.; assay type: functional; conditions: Homo sapiens, COLO 205, 48 h
DU-145 = test: Growth inhibition of the DU-145 Prostate cancer cell line for 2-day in vitro assay.; assay type: functional; conditions: Homo sapiens, DU-145, 48 h
EKVX = test: Growth inhibition of the EKVX non-small cell lung cancer cell line for 2-day in vitro assay.; assay type: functional; conditions: Homo sapiens, 48 h
HCT-15 = test: Growth inhibition of the HCT-15 colon cancer cell line for 2-day in vitro assay.; assay type: functional; conditions: Homo sapiens, HCT-15, 48 h
HOP-62 = test: Growth inhibition of the HOP-62 non-small cell lung cancer cell line for 2-day in vitro assay.; assay type: functional; conditions: Homo sapiens, HOP-62, 48 h
HCT-116 = test: Growth inhibition of the HCT116 colon cancer cell line for 2-day in vitro assay.; assay type: functional; conditions: Homo sapiens, HCT-116, 48 h
HCC 2998 = test: Growth inhibition of the HCC2998 colon cancer cell line for 2-day in vitro assay.; assay type: functional; conditions: Homo sapiens, HCC 2998, 48 h
HOP-92 = test: Growth inhibition of the HOP-92 non-small cell lung cancer cell line for 2-day in vitro assay.; assay type: functional; conditions: Homo sapiens, HOP-92, 48 h
Hs-578T = test: Growth inhibition of the Hs 578.T Breast cancer cell line for 2-day in vitro assay.; assay type: functional; conditions: Homo sapiens, 48 h
K562 = test: Growth inhibition of the K-562 leukemia cell line for 2-day in vitro assay.; assay type: functional; conditions: Homo sapiens, K562, 48 h
KM12 = test: Growth inhibition of the KM12 colon cancer cell line for 2-day in vitro assay.; assay type: functional; conditions: Homo sapiens, KM12, 48 h
M14 = test: Growth inhibition of the M14 Melanoma cancer cell line for 2-day in vitro assay.; assay type: functional; conditions: Homo sapiens, M14, 48 h
LOX IMVI = test: Growth inhibition of the LOX IMVI Melanoma cancer cell line for 2-day in vitro assay.; assay type: functional; conditions: Homo sapiens, 48 h
MDA-MB-435 = test: Growth inhibition of the […] Breast cancer cell line for 2-day in vitro assay.; assay type: functional; conditions: Homo sapiens, MDA-MB-435, 48 h
Malme-3M = test: Growth inhibition of the MALME-3M Melanoma cancer cell line for 2-day in vitro assay.; assay type: functional; conditions: Homo sapiens, 48 h
OVCAR-3 = test: Growth inhibition of the OVCAR-3 Ovarian cancer cell line for 2-day in vitro assay.; assay type: functional; conditions: Homo sapiens, OVCAR-3, 48 h
NCI-H522 = test: Growth inhibition of the NCI-H522 non-small cell lung cancer cell line for 2-day in vitro assay.; assay type: functional; conditions: Homo sapiens, NCI-H522, 48 h
NCI-H226 = test: Growth inhibition of the NCI-H226 non-small cell lung cancer cell line for 2-day in vitro assay.; assay type: functional; conditions: Homo sapiens, NCI-H226, 48 h
NCI-H322M = test: Growth inhibition of the NCI-H322M non-small cell lung cancer cell line for 2-day in vitro assay.; assay type: functional; conditions: Homo sapiens, 48 h
OVCAR-8 = test: Growth inhibition of the OVCAR-8 Ovarian cancer cell line for 2-day in vitro assay.; assay type: functional; conditions: Homo sapiens, OVCAR-8, 48 h
OVCAR-4 = test: Growth inhibition of the OVCAR-4 Ovarian cancer cell line for 2-day in vitro assay.; assay type: functional; conditions: Homo sapiens, OVCAR-4, 48 h
NCI-H460 = test: Growth inhibition of the NCI-H460 non-small cell lung cancer cell line for 2-day in vitro assay.; assay type: functional; conditions: Homo sapiens, NCI-H460, 48 h
NCI-H23 = test: Growth inhibition of the NCI-H23 non-small cell lung cancer cell line for 2-day in vitro assay.; assay type: functional; conditions: Homo sapiens, NCI-H23, 48 h
OVCAR-5 = test: Growth inhibition of the OVCAR-5 Ovarian cancer cell line for 2-day in vitro assay.; assay type: functional; conditions: Homo sapiens, OVCAR-5, 48 h
PC-3 = test: Growth inhibition of the PC-3 Prostate cancer cell line for 2-day in vitro assay.; assay type: functional; conditions: Homo sapiens, PC-3, 48 h
RXF 393 = test: Growth inhibition of the RXF-393 Renal cancer cell line for 2-day in vitro assay.; assay type: functional; conditions: Homo sapiens, RXF 393, 48 h
SF-268 = test: Growth inhibition of the SF-268 CNS cancer cell line for 2-day in vitro assay.; assay type: functional; conditions: Homo sapiens, SF-268, 48 h
SK-MEL-2 = test: Growth inhibition of the SK-MEL-2 Melanoma cancer cell line for 2-day in vitro assay.; assay type: functional; conditions: Homo sapiens, SK-MEL-2, 48 h
SW-620 = test: Growth inhibition of the SW-620 colon cancer cell line for 2-day in vitro assay.; assay type: functional; conditions: Homo sapiens, SW-620, 48 h
SN12C = test: Growth inhibition of the SN12C Renal cancer cell line for 2-day in vitro assay.; assay type: functional; conditions: Homo sapiens, 48 h
SNB-19 = test: Growth inhibition of the SNB19 CNS cancer cell line for 2-day in vitro assay.; assay type: functional; conditions: Homo sapiens, SNB-19, 48 h
SF-295 = test: Growth inhibition of the SF-295 CNS cancer cell line for 2-day in vitro assay.; assay type: functional; conditions: Homo sapiens, SF-295, 48 h
SR = test: Growth inhibition of the SR leukemia cell line for 2-day in vitro assay.; assay type: functional; conditions: Homo sapiens, 48 h
SK-MEL-5 = test: Growth inhibition of the SK-MEL-5 Melanoma cancer cell line for 2-day in vitro assay.; assay type: functional; conditions: Homo sapiens, SK-MEL-5, 48 h
SNB-75 = test: Growth inhibition of the SNB-75 CNS cancer cell line for 2-day in vitro assay.; assay type: functional; conditions: Homo sapiens, SNB-75, 48 h
SK-MEL-28 = test: Growth inhibition of the SK-MEL-28 Melanoma cancer cell line for 2-day in vitro assay.; assay type: functional; conditions: Homo sapiens, SK-MEL-28, 48 h
TK-10 = test: Growth inhibition of the TK-10 Renal cancer cell line for 2-day in vitro assay.; assay type: functional; conditions: Homo sapiens, TK-10, 48 h
T47D = test: Growth inhibition of the T-47D Breast cancer cell line for 2-day in vitro assay.; assay type: functional; conditions: Homo sapiens, 48 h
UO-31 = test: Growth inhibition of the UO-31 Renal cancer cell line for 2-day in vitro assay.; assay type: functional; conditions: Homo sapiens, UO-31, 48 h
UACC-257 = test: Growth inhibition of the UACC-257 Melanoma cancer cell line for 2-day in vitro assay.; assay type: functional; conditions: Homo sapiens, UACC-257, 48 h
U-251 = test: Growth inhibition of the U251 CNS cancer cell line for 2-day in vitro assay.; assay type: functional; conditions: Homo sapiens, U-251, 48 h
UACC-62 = test: Growth inhibition of the UACC-62 Melanoma cancer cell line for 2-day in vitro assay.; assay type: functional; conditions: Homo sapiens, UACC-62, 48 h
NCI/ADR-RES = test: Growth inhibition of the NCI/ADR-RES Breast cancer cell line for 2-day in vitro assay.; assay type: functional; conditions: Homo sapiens, 48 h
SK-OV-3 = test: Growth inhibition of the SK-OV-3 Ovarian cancer cell line for 2-day in vitro assay.; assay type: functional; conditions: Homo sapiens, SK-OV-3, 48 h
HT-29 = test: Growth inhibition of the HT-29 colon cancer cell line for 2-day in vitro assay.; assay type: functional; conditions: Homo sapiens, HT-29, 48 h
MDA-MB-231 = test: Growth inhibition of the […] Breast cancer cell line for 2-day in vitro assay.; assay type: functional; conditions: Homo sapiens, MDA-MB-231, 48 h
MCF7 [2] = test: Growth inhibition of the MCF-7 Breast cancer cell line for 2-day in vitro assay.; assay type: functional; conditions: Homo sapiens, MCF7, 48 h
MOLT-4 = test: Growth inhibition of the MOLT-4 leukemia cell line for 2-day in vitro assay.; assay type: functional; conditions: Homo sapiens, MOLT-4, 48 h
BT-549 = test: Growth inhibition of the BT-549 Breast cancer cell line for 2-day in vitro assay.; assay type: functional; conditions: Homo sapiens, BT-549, 48 h

CC(=O)Nc1ccc(-c2nc3cccc(O)c3s2)cc1C
IC50 (MCF7 [1]): 48.2 µM

CC(=O)Nc1ccc(-c2nc3cc(O)ccc3s2)cc1Cl
IC50 (MCF7 [1]): 31 µM

Nc1ccc(-c2nc3ccc(O)cc3s2)cc1
IC50 (MCF7 [1]): 21.6 µM

Nc1ccc(-c2nc3c(O)cccc3s2)cc1
IC50 (MCF7 [1]): > 100 µM

CC(=O)Nc1ccc(-c2nc3cc(O)ccc3s2)cc1C
IC50 (MCF7 [1]): 72.5 µM

Nc1ccc(-c2nc3cc(O)ccc3s2)cc1Cl
IC50 (MCF7 [1]): 60.6 µM

Nc1ccc(-c2nc3ccccc3s2)cc1I
IC50 (MCF7 [1]): < 0.001 µM

Cc1cc(-c2nc3ccc(O)cc3s2)ccc1N
GI50 (786-0): 29.5 µM | GI50 (A498): 41.7 µM | GI50 (A549): 34.7 µM | GI50 (ACHN): 53.7 µM | GI50 (CCRF-CEM): 0.794 µM | GI50 (COLO 205): > 100 µM | GI50 (DU-145): 33.9 µM | GI50 (EKVX): 4.07 µM | GI50 (HCT-15): > 100 µM | GI50 (HOP-62): 30.9 µM | GI50 (HCT-116): 43.7 µM | GI50 (HCC 2998): > 100 µM | GI50 (HOP-92): > 100 µM | GI50 (Hs-578T): 95.5 µM | GI50 (K562): 36.3 µM | GI50 (KM12): 57.5 µM | GI50 (M14): 33.1 µM | GI50 (LOX IMVI): > 100 µM | GI50 (MDA-MB-435): 89.1 µM | IC50 (MCF7 [1]): < 0.001 µM | GI50 (Malme-3M): 83.2 µM | GI50 (OVCAR-3): 38.9 µM | GI50 (NCI-H522): 30.2 µM | GI50 (NCI-H226): 60.3 µM | GI50 (NCI-H322M): 39.8 µM | GI50 (OVCAR-8): > 100 µM | GI50 (OVCAR-4): 37.2 µM | GI50 (NCI-H460): 38.9 µM | GI50 (NCI-H23): 12.6 µM | GI50 (OVCAR-5): 83.2 µM | GI50 (PC-3): 50.1 µM | GI50 (RXF 393): 30.2 µM | GI50 (SF-268): 35.5 µM | GI50 (SK-MEL-2): > 100 µM | GI50 (SW-620): 66.1 µM | GI50 (SN12C): 38.9 µM | GI50 (SNB-19): 45.7 µM | GI50 (SF-295): 31.6 µM | GI50 (SR): 21.9 µM | GI50 (SK-MEL-5): 52.5 µM | GI50 (SNB-75): 15.8 µM | GI50 (SK-MEL-28): 64.6 µM | GI50 (TK-10): 77.6 µM | GI50 (T47D): 22.4 µM | GI50 (UO-31): 21.4 µM | GI50 (UACC-257): > 100 µM | GI50 (U-251): 31.6 µM | GI50 (UACC-62): 57.5 µM | GI50 (NCI/ADR-RES): 91.2 µM | GI50 (SK-OV-3): 37.2 µM | GI50 (HT-29): 37.2 µM | GI50 (MDA-MB-231): 44.7 µM | GI50 (MCF7 [2]): 56.2 µM | GI50 (MOLT-4): 26.9 µM | GI50 (BT-549): 14.1 µM

Cc1cc(-c2nc3cccc(O)c3s2)ccc1N
IC50 (MCF7 [1]): 90.8 µM

CC(=O)Nc1ccc(-c2nc3ccccc3s2)cc1O
IC50 (MCF7 [1]): 9 µM

Nc1ccc(-c2nc3ccc(O)cc3s2)cc1Cl
IC50 (MCF7 [1]): 54.5 µM

CC(=O)Nc1ccc(-c2nc3c(O)cccc3s2)cc1Cl
IC50 (MCF7 [1]): 56.8 µM

Nc1ccc(-c2nc3ccccc3s2)cc1CO
IC50 (MCF7 [1]): 0.006 µM
